Tests used:
[1] = system: Carrageenin edema; test: Antiinflammatory action (Carrageenin edema method); format: in vivo, Jcl: SD rats; details: Rattus norvegicus; 50 mg/kg oral, one hour before carrageenin; paw volume 3 hours later; rats; read-out: Inhibition rate, Carrageenin edema
Experimental: (1) Antiinflammatory action (Carrageenin edema method)
Using a group of six Jcl: SD rats (6 week old, male), antiinflammatory action was investigated in accordance with the method of Winter et al. [Proc. Soc. Exp. Biol. Med., 111, 544(1962)]. One hour after the oral administration of 50 mg/kg of a test sample, the animals were injected subcutaneously with 0.05 ml each of a 1% solution of carrageenin in physiological saline solution into a sole. The volume of the hind-paw was measured 3 hours later and compared with that before the injection, and the edema volume was determined from the difference. By comparing the edema volumes of animal groups untreated and treated with test samples, the inhibition rate was determined.

[2] = system: Reversed passive Arthus reaction; test: Antiinflammatory action (Reversed passive Arthus reaction); format: in vivo, Jcl: SD rats; details: Rattus norvegicus, 1 h; 12.5 mg/kg oral, one hour before the injection of egg albumin; rats; read-out: Inhibition rate, Reversed passive Arthus reaction
Experimental: (2) Antiinflammatory action (Reversed passive Arthus reaction)
A group consisting of six Jcl: SD rats (7 week old, male was used. The hair of the back of the animals was cut, under ether anesthesia, and 1 ml each of a 0.5% solution of egg albumin in physiological saline solution was injected into the tail vein of each test animal, followed by intradermal injection of 0.1 ml of rabbit anti-egg albumin antiserum at each side of the left and right of the back and a further intradermal injection of 0.1 ml of physiological saline solution at the left side. Three hours later, each animal was intravenously injected with 1 ml of 1% Evans' blue physiological saline solution. Thirty minutes later, the test animals were exfoliated and the area(mm^2) of each of the blue spot was measured. The test sample in a dose of 12.5 mg/kg was orally administered one hour before the injection of egg albumin. By comparing the area(mm^2) of the blue spot in the test group with that of the control group, inhibition rate was determined.

[3] = system: Phenyl quinone writhing; test: Analgesic action (Phenyl quinone writhing method); format: in vivo, Slc: ICR mice; details: Mus musculus, 20 min; 50 mg/kg oral, 30 minutes before phenyl quinone; 20 minutes counting; mice; read-out: Inhibition rate, Phenyl quinone writhing
Experimental: Analgesic action (Phenyl quinone writhing method)
Using a group of 10 Slc: ICR mice (4 week old, male), analgesic action was investigated in accordance with the method of Siegmund et al. [Proc. Soc. Exp. Biol. Med., 95, 729(1957)]. A test sample in a dose of 50 mg/kg was orally administered, and 30 minutes later, a 0.02% aqueous phenyl quinone solution was intraperitoneally injected in the proportion of 0.1 ml relative to 10 g of body weight. Over the period of 20 minutes from the injection, the number of writhings was counted for the individual animals. By comparing the untreated and treated animal groups for the number of reactions, the writhing inhibition rate was determined.

[4] = system: Jcl: ICR mice; details: mouse, in vivo
Experimental: A group of 5 Jcl: Wistar rats (5 week old, 90-110 g body weight, Japan Clea, male) and a group of 5 Jcl: ICR mice (5 week old, 25-30 g body weight, Japan Clea, male) were used. These rats were each administerred orally with 10 ml/kg of the test compound (250 mg/kg), while these mice were each administered orally with 20 ml/kg of the test compound (500 mg/kg).
These oral administrations were made on the form of a suspension in 5% gum arabic vehicle. One week later, the number of dead animals was observed.

[5] = system: acute hepatic failure due to P. acnes-LPS; test: Effect against acute hepatic failure due to P. acnes-LPS (anti-lethal effect); format: in vivo, BALB/c mice; details: 0.3 mg/kg, p.o., one hour prior to LPS, 48 hours later; for Anti-lethal effect: Number of dead mice: group of 10, control 10 dead
Experimental: A group of 10 BALB/c mice (7 week old, male) was used. Each mouse was injected into the tail vein with P. acnes killed by heating at a dose of 1 mg/mouse. Seven days later, each mouse was injected intravenously with LPS(1 l μg/mouse) derived from Salmonella enteritidis to cause acute hepatic failure. Usually, in a group of mice intravenously injected with LPS, 90% to 100% of the animals die within 24 hours. Using this model, each compound was tested. Each compound(I) shown in Table 2 was suspended in a 5% gum arabic vehicle and was orally administered to the animals at 0.3 mg/kg one hour prior to the injection of LPS, and then 48 hours later, the number of the dead mice was determined. The mice in the control group were orally given the 5% gum arabic vehicle one hour prior to LPS administration.

| Structure (SMILES) | inhibition in vivo at 50 mg/kg [1] [%] | inhibition in vivo at 12.5 mg/kg [2] [%] | inhibition in vivo at 50 mg/kg [3] [%] | number of dead animals, Mice [4] | Anti-lethal effect: effective ratio [5] [%] | Anti-lethal effect: Number of dead mice [5] |
| --- | --- | --- | --- | --- | --- | --- |
| CCCCn1c(=O)n(CCC)c(=O)c2c3n(nc21)CCN3C [compound 1] | 70 | 32 | 97 | – | – | – |
| CCCCn1c(=O)n(CCC)c(=O)c2c3n(nc21)CCN3 [compound 2] | 103 | 65 | 100 | – | – | – |
| CCCCn1c(=O)c2c3n(nc2n(CCCC)c1=O)CCN3 [compound 3] | 100 | 68 | 98 | – | – | – |
| CCCCCn1c(=O)n(CCC)c(=O)c2c3n(nc21)CCN3 [compound 6] | 105 | 71 | 96 | – | – | – |
| CCn1c(=O)c2c3n(nc2n(CC)c1=O)CCN3 [compound 7] | 99 | 42 | 52 | – | – | – |
| CCCn1c(=O)c2c3n(nc2n(CC)c1=O)CCN3 [compound 10] | 100 | 36 | 87 | – | – | – |
| CCCn1c(=O)c2c3n(nc2n(CCC)c1=O)CCN3 [compound 13] | 97 | 65 | 95 | 0 | – | – |
| CCCn1c(=O)c2c3n(nc2n(CCC(C)C)c1=O)CCN3 [compound 17] | 83 | 73 | 79 | – | – | – |
| C=CCn1c(=O)n(CCC)c(=O)c2c3n(nc21)CCN3 [compound 18] | 93 | 87 | 90 | – | – | – |
| C=CCn1c(=O)c2c3n(nc2n(CC=C)c1=O)CCN3 [compound 29] | 79 | 73 | 80 | – | – | – |
| CCCn1c(=O)c2c3n(nc2n(CCC)c1=O)CCN3C(=O)CC [compound 33] | 87 | 87 | 77 | – | – | – |
| CCCCn1c(=O)n(CCC)c(=O)c2c3n(nc21)CCN3C(C)=O [compound 40] | 82 | 69 | 89 | 0 | – | – |
| CCCCn1c(=O)n(CCC)c(=O)c2c1nn1cc[nH]c21 [compound 43] | 109 | 90 | 89 | – | 100 | 0 |
| CCCn1c(=O)c2c(nn3cc[nH]c23)n(CCC)c1=O [compound 44] | 90 | 91 | 96 | – | 100 | 0 |
| C=CCn1c(=O)c2c(nn3cc[nH]c23)n(CC=C)c1=O [compound 45] | 85 | 74 | 87 | – | 100 | 0 |
| CCCCn1c(=O)c2c(nn3cc[nH]c23)n(CCCC)c1=O [compound 46] | 90 | 70 | 96 | – | 80 | 2 |
| CCCn1c(=O)c2c(nn3cc[nH]c23)n(CC(C)C)c1=O [compound 48] | 95 | 93 | 91 | – | 90 | 1 |
| C=CCn1c(=O)n(CCC)c(=O)c2c1nn1cc[nH]c21 [compound 49] | 80 | 88 | 80 | – | 70 | 3 |
| CCCCCn1c(=O)n(CCC)c(=O)c2c1nn1cc[nH]c21 [compound 50] | 78 | 79 | 89 | – | 90 | 1 |
